≈ marks a conversion by molar mass, not a printed value. Read-outs that look alike come from different tables or passages of the source. Marks after values point to notes of the source that are not given here. Starred links: 1 amine or outer side, 2 acyl side, 3 side chain; linkers in the order of their positions; H or OH if unused. Non-standard residues stand in square brackets, D forms with d. Residues, ends and D or L forms follow the SMILES beside them. Groups on a side chain read outwards from the residue. *: point of attachment. X1 = CCCCCCCCCCCCCCCC(=O)N[C@@H](CCC(=O)N[C@@H](CCC(=O)N[C@@H](CCC(=O)NCCCOCCOCCOCCCNC(=O)CCC(=O)NCCCOCCOCCOCCCNC(=O)CCC(=O)NCCCOCCOCCOCCCN*)C(=O)O)C(=O)O)C(=O)O; X2 = CCCCCCCCCCCCCCCC(=O)N[C@@H](CCC(=O)N[C@@H](CCC(=O)N[C@@H](CCC(=O)NCCCOCCOCCOCCCNC(=O)CCC(=O)NCCCOCCOCCOCCCN*)C(=O)O)C(=O)O)C(=O)O; Suc = O=C(CCC(=O)[*:2])[*:1]; αMeK = C[C@](N)(CCCCN)C(=O)O; Aib = CC(C)(N)C(=O)O

The nature of one data set: Stability in rat plasma. Format: in vitro ADME. The following applies: for Rat plasma stability % remaining: T = 0, 37° C., 5 μM; for remaining at 1 h, 5 μM / remaining at 4 h, 5 μM: rat, plasma (sodium or lithium heparin), 37° C. How it is done:
(§1) Prior to the testing of stability in plasma (or blood) of a peptide batch, its purity (HPLC-UV) was determined.
Rat and Human plasma: anti-coagulant sodium or lithium heparin.
(§2) 100 μM solution of study compound in 50 mM phosphate buffer pH 7.4.
(§3) 950 μL plasma (or blood) was pre-incubated for 5 min at 37° C. 50 μL of compound stock solution was added. Final compound concentration=5 μM. Vortex and transfer 150 μL plasma (or blood) into an Eppendorf for each time point. The time points […] were carried out in duplicate for each species.
(§4) After incubation, 150 μL plasma (or blood) was extracted with 600 μL Acetonitrile containing 1% TFA. Said mixture was then vortexed and centrifuged 10 min at 14600 rpm. 200 μL supernatant was dried under N2. Sample was then reconstituted in 200 μL of H2O/CH3CN 98/2+0.1% FA+50 ng/ml Labetalol and analyzed using the analytical system used in solubility and stability studies.
(§5) For determination of the amount of the remaining peptide, the peak areas of the target compound at t0 and each time point […] were compared, resulting in “% remaining peptide”, following the equation: % remaining peptide=[(peak area peptide time)×100]/peak area peptide t0. The stability was expressed as “% remaining peptide”.

A short description of data set [1]: Solubility testing in buffer. Format: physicochemical. The following applies: target solubility 10.0 mg/ml.
The next data set can be described thus: Stability in human blood. The following applies: for Human blood stability % remaining: T = 0, 37° C., 5 μM; for remaining at 1 h, 5 μM / remaining at 4 h, 5 μM: human, whole blood (sodium or lithium heparin), 37° C. It is filed as in vitro ADME. The method, then: as §1
Rat and Human blood: anti-coagulant sodium or lithium heparin.
as §2, §3, §4, §5

[2] abbreviates: acetate buffer 50 mM pH 4.5, read-out: Solubility Acetate buffer pH 4.5.
The mark [3] stands for this setting: phosphate buffer 50 mM pH 7.4, read-out: Solubility phosphate buffer pH 7.4.

As to `CCCCCCCCCCCCCCCC(=O)N[C@@H](CCC(=O)N[C@@H](CCC(=O)N[C@@H](CCC(=O)NCCCOCCOCCOCCCNC(=O)CCC(=O)NCCCOCCOCCOCCCNC(=O)CCC(=O)NCCCOCCOCCOCCCNC(=O)CCC(=O)NCCCC[C@H](NC(=O)CNC(=O)[C@H](CCC(=O)O)NC(=O)C(C)(C)NC(=O)C(C)(C)NC(=O)[C@@H](NC(=O)[C@H](CCCCNC(C)=O)NC(=O)[C@H](C)NC(=O)[C@H](CCCNC(=N)N)NC(=O)[C@@H](NC(=O)[C@H](CCCCN)NC(=O)[C@H](CCC(=O)O)NC(=O)[C@H](CCCNC(=N)N)NC(=O)CNC(=O)[C@H](CCC(=O)O)NC(=O)[C@H](CC(C)C)NC(C)=O)C(C)C)[C@@H](C)CC)C(=O)N[C@@H](CO)C(=O)N[C@H](C(=O)N[C@@H](Cc1ccccc1)C(=O)N[C@@H](CO)C(=O)N[C@@](C)(CCCCN)C(=O)N[C@@H](CCCNC(=N)N)C(=O)N[C@@H](C)C(=O)N[C@@H](CCCCNC(C)=O)C(N)=O)[C@@H](C)O)C(=O)O)C(=O)O)C(=O)O` [compound 3] (Ac-LEGREKVRAK(Ac)I[Aib][Aib]EGK([Suc-X1])STFS[αMeK]RAK(Ac)-NH2), in “Stability in rat plasma”, the “Rat plasma stability % remaining” value stood at 98%; the share remaining – broadly, what is left of the initial amount, in per cent – at 1 h, 5 μM worked out at 100%; the fraction remaining at 4 h, 5 μM is 87%. Further, the solubility (usually the concentration that dissolves in the medium under given conditions) in data set [1] (setting [2]) was 11.1 mg/mL (≈ 2550 µM). In addition, the solubility in data set [1] (setting [3]) came to 11.5 mg/mL (≈ 2640 µM). In addition, in “Stability in human blood”, the “Human blood stability % remaining” value was 100* %; the fraction remaining at 1 h, 5 μM is 95%; the fraction remaining at 4 h, 5 μM is 95%.
Regarding `CCCCCCCCCCCCCCCC(=O)N[C@@H](CCC(=O)N[C@@H](CCC(=O)N[C@@H](CCC(=O)NCCCOCCOCCOCCCNC(=O)CCC(=O)NCCCOCCOCCOCCCNC(=O)CCC(=O)NCCCC[C@H](NC(=O)CNC(=O)[C@H](CCC(=O)O)NC(=O)C(C)(C)NC(=O)C(C)(C)NC(=O)[C@@H](NC(=O)[C@H](CCCCNC(C)=O)NC(=O)[C@H](C)NC(=O)[C@H](CCCNC(=N)N)NC(=O)[C@@H](NC(=O)[C@H](CCCCN)NC(=O)[C@H](CCC(=O)O)NC(=O)[C@H](CCCNC(=N)N)NC(=O)CNC(=O)[C@H](CCC(=O)O)NC(=O)[C@H](CC(C)C)NC(C)=O)C(C)C)[C@@H](C)CC)C(=O)N[C@@H](CO)C(=O)N[C@H](C(=O)N[C@@H](Cc1c[nH]c2ccccc12)C(=O)N[C@@H](CO)C(=O)NC(C)(C)C(=O)N[C@@H](CCCNC(=N)N)C(=O)N[C@@H](CCCCN)C(=O)N[C@@H](CCCCNC(C)=O)C(N)=O)[C@@H](C)O)C(=O)O)C(=O)O)C(=O)O` [compound 4] (Ac-LEGREKVRAK(Ac)I[Aib][Aib]EGK([Suc-X2])STWS[Aib]RKK(Ac)-NH2), in the data set “Stability in rat plasma”, the “Rat plasma stability % remaining” value was found to be 100%; the amount remaining at 1 h, 5 μM came out at 100%; the share remaining at 4 h, 5 μM was 59%. For the same molecule, the solubility in data set [1] (setting [2]) was found to be 9.63 mg/mL (≈ 2350 µM). The solubility in data set [1] (setting [3]) was 7.71 mg/mL (≈ 1880 µM). In addition, in the data set “Stability in human blood”, the “Human blood stability % remaining” value is 100* %; the amount remaining at 1 h, 5 μM worked out at 100%; the fraction remaining at 4 h, 5 μM stood at 99%.

(Values after patent US11725036B2, “Modified lipidated relaxin B chain peptides and their therapeutic use” (Sanofi, priority 2018, dated 2023).)
